Measurements reported in patent US20250312462A1, “PAK1 DEGRADERS AND METHODS OF USE THEREOF” (INSTITUTE FOR CANCER RESEARCH D/B/A THE RESEARCH INSTITUTE …, priority 2022, published 2025).

Assays:
ERK = ERK phosphorylation in OVCAR3 and MCF7 cells, immunoblot; type: cell-based; conditions: 10 nM, 24 hours
Procedure: FIG. 3A is a series of Western blots showing OVCAR3 and MCF7 cells that were treated for 24 hours with DMSO, 10 nM BJG-05-039, or NVS-PAK1-1 as indicated. MEK and ERK phosphorylation was assessed by immunoblot with the indicated phosphorylation-specific antibodies. FIG. 3B is a Western blot showing MCF7 cells that were stably transduced with a doxycycline-regulated shRNA against PAK1. shRNA expression was induced by the indicated amounts of doxycycline and immunoblots were performed using cell lysates 24 hours post doxycycline addition. FIG. 3C is a Western blot showing MCF7 cells that were treated with vehicle or […] doxycycline. Immunoblots were performed using cell lysates 24 hours post doxycycline addition.
Cells were washed once in PBS and lysed in RIPA buffer (50 mM Tris-HCl, 150 mM NaCl, 0.25% (w/v) sodium deoxycholate, 1% (w/v) NP-40, pH 7.5) containing protease inhibitor cocktail (Roche) and phosphatase inhibitor cocktail (Roche) for 30 minutes on ice. […]
In certain cell lines, PAK1 has well-characterized functions in regulating proliferative signaling. […] As a readout for anti-PAK activity, phosphorylation of MEK1 at S298 was assessed, a direct target site for Group A PAKs (Coles, et al. (2002) Oncogene 21:2236-2244; Slack-Davis, et al. (2003) J. Cell. Biol., 162:281-291), as well as phosphorylation of the downstream target of MEK, ERK. […]

MARK2 = MARK2 (Homo sapiens, UniProt Q7KZI7); test: KINOMEscan; conditions: read-out: Percent Control
Procedure: (§1) The kinase engagement assay (KINOMEscan®) was performed by DiscoverX assessing binding abilities toward a set of kinases.

TNIK = TNIK (Homo sapiens, UniProt Q9UKE5); test: KINOMEscan; conditions: read-out: Percent Control
Sequence of TNIK (Q9UKE5 whole entry): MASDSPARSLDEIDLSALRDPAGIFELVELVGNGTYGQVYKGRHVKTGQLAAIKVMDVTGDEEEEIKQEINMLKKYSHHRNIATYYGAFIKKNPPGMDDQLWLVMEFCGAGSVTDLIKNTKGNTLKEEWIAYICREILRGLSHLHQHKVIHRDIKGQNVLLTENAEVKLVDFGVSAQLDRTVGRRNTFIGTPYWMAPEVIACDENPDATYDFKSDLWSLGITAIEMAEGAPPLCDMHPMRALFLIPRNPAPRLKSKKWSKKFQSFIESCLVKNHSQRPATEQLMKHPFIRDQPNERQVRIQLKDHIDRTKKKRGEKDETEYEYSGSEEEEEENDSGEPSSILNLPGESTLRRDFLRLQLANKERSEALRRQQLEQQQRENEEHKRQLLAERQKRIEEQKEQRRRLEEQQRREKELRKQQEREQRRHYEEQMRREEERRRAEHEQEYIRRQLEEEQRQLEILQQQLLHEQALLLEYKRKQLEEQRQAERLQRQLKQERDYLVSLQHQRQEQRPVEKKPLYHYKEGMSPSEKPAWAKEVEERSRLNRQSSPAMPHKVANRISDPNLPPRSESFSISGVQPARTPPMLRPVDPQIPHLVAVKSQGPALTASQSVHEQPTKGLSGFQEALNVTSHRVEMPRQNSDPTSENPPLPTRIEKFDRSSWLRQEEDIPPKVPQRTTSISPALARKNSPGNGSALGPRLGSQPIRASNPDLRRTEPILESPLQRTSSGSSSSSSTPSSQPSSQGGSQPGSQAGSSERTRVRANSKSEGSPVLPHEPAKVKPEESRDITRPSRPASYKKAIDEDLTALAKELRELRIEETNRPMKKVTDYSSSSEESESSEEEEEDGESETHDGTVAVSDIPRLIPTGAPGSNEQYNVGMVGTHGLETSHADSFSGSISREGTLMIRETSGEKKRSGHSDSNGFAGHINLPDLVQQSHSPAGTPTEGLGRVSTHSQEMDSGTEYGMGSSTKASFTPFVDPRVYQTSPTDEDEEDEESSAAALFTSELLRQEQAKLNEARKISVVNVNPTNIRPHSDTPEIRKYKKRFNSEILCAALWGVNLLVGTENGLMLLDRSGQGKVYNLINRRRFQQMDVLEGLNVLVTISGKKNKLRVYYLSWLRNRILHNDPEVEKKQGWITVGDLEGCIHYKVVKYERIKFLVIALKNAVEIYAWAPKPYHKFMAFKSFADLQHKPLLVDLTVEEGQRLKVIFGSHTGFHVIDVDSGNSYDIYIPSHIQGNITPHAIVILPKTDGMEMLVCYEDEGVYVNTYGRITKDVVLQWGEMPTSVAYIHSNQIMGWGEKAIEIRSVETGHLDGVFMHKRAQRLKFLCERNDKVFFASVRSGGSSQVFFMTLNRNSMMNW
Procedure: as §1

DMPK = DMPK (Homo sapiens, UniProt Q09013); test: KINOMEscan; conditions: read-out: Percent Control
Procedure: as §1

GAK = GAK (Homo sapiens, UniProt O14976); test: KINOMEscan; conditions: read-out: Percent Control
Sequence of GAK (O14976 whole entry): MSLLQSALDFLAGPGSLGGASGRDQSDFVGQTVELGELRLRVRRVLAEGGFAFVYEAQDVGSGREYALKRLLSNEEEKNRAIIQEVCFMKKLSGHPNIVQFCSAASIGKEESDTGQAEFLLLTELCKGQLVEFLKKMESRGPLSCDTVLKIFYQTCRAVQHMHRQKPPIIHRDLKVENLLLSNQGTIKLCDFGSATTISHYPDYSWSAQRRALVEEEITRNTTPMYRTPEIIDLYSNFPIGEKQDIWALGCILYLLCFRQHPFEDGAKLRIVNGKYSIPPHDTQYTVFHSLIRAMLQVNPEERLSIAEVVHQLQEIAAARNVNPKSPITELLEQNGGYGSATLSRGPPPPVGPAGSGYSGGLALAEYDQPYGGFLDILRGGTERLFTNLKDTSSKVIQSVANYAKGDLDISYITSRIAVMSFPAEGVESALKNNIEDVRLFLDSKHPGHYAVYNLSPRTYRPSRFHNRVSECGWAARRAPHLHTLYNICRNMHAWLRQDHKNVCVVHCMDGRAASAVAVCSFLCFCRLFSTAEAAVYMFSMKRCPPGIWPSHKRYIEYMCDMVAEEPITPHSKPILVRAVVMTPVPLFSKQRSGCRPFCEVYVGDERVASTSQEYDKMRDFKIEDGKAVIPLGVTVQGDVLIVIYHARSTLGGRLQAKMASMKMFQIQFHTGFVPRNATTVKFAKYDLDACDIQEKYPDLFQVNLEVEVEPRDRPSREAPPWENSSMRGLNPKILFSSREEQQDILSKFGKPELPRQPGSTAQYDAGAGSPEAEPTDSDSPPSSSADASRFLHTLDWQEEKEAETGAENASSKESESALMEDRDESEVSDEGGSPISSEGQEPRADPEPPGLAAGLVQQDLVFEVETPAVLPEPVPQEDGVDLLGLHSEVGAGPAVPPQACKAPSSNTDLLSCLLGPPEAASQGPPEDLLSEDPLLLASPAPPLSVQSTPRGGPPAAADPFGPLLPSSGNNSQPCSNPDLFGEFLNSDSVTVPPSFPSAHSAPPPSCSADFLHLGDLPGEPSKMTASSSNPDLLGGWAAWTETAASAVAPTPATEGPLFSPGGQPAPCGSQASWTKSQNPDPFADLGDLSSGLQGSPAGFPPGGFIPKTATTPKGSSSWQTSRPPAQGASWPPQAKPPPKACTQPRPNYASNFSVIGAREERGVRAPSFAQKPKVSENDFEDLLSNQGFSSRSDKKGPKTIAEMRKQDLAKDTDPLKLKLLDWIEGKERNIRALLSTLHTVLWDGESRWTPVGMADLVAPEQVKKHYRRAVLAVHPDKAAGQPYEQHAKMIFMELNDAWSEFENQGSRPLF
Procedure: as §1

PRKG1 = PRKG1 (Homo sapiens, UniProt Q13976); test: KINOMEscan; conditions: read-out: Percent Control
Procedure: as §1

CSNK1E = CSNK1E (Homo sapiens, UniProt P49674); test: KINOMEscan; conditions: read-out: Percent Control
Procedure: as §1

MRCKB = MRCKB (Homo sapiens, UniProt Q9Y5S2); test: KINOMEscan; conditions: read-out: Percent Control
Procedure: as §1

GRK4 = GRK4 (Homo sapiens, UniProt P32298); test: KINOMEscan; conditions: read-out: Percent Control
Procedure: as §1

MAP4K3 = MAP4K3 (Homo sapiens, UniProt Q8IVH8); test: KINOMEscan; conditions: read-out: Percent Control
Procedure: as §1

YES = YES (Homo sapiens, UniProt P07947); test: KINOMEscan; conditions: read-out: Percent Control
Procedure: as §1

[1] = target: EGFR(L747-S752del, P753S) (Homo sapiens, UniProt P00533, DEL747-752/P753S); test: KINOMEscan; conditions: read-out: Percent Control
Procedure: as §1

TEC = TEC (Homo sapiens, UniProt P42680); test: KINOMEscan; conditions: read-out: Percent Control
Sequence of TEC (P42680 whole entry): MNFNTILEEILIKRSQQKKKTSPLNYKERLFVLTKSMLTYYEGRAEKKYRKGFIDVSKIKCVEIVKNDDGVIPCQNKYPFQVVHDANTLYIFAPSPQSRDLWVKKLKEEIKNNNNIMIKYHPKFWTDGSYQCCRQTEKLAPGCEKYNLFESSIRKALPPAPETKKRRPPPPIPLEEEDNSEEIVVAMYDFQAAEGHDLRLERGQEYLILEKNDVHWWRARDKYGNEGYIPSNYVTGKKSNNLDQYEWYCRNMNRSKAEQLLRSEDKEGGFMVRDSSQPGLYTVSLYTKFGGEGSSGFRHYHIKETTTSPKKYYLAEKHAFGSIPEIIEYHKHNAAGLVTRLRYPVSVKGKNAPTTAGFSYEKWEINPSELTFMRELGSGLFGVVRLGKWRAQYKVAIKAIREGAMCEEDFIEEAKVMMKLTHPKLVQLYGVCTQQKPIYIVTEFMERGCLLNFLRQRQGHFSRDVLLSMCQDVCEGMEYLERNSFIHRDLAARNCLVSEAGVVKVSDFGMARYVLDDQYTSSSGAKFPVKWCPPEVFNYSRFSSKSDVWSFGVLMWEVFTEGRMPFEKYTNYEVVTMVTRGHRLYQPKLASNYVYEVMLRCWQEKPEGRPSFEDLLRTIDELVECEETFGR
Procedure: as §1

NEK1 = NEK1 (Homo sapiens, UniProt Q96PY6); test: KINOMEscan; conditions: read-out: Percent Control
Procedure: as §1

CDC2L2 = CDC2L2 (Homo sapiens, UniProt Q9UQ88); test: KINOMEscan; conditions: read-out: Percent Control
Procedure: as §1

DDR2 = DDR2 (Homo sapiens, UniProt Q16832); test: KINOMEscan; conditions: read-out: Percent Control
Sequence of DDR2 (Q16832 22-855): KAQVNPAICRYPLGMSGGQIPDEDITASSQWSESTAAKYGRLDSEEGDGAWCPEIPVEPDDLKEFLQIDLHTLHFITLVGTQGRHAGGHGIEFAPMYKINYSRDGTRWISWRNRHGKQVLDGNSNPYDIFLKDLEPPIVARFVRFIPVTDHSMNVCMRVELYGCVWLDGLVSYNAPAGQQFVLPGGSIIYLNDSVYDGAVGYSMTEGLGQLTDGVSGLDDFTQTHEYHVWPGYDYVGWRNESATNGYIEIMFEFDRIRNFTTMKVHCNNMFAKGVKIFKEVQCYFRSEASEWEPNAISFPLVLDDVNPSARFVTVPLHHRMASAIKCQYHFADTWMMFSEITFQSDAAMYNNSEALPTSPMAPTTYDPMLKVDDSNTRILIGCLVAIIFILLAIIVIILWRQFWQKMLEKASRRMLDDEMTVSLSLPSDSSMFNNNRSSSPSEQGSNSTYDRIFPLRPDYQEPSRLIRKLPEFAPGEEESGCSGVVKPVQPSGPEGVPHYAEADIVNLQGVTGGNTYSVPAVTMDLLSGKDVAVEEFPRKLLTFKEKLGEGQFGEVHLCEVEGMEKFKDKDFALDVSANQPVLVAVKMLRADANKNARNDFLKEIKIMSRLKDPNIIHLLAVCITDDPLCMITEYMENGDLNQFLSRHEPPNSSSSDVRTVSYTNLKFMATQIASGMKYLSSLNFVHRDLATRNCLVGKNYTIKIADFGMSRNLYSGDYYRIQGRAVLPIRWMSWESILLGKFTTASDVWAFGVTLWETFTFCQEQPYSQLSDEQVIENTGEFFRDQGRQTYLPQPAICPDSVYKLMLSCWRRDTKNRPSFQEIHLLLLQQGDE
Procedure: as §1

S6K1 = S6K1 (Homo sapiens, UniProt P23443); test: KINOMEscan; conditions: read-out: Percent Control
Sequence of S6K1 (P23443 whole entry): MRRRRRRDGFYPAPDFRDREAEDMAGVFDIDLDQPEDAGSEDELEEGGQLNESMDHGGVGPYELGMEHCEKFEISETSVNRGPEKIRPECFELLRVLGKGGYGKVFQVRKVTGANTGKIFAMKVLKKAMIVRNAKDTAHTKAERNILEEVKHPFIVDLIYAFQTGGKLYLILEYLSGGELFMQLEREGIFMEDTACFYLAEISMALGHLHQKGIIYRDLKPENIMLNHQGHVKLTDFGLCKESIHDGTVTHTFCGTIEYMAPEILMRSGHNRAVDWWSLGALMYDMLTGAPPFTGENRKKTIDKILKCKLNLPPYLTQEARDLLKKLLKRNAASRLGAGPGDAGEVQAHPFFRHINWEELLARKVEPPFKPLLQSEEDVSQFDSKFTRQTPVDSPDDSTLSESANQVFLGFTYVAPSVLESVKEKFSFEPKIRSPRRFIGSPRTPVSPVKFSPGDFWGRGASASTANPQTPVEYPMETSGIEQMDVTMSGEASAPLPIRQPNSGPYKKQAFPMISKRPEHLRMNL
Procedure: as §1

WNK3 = WNK3 (Homo sapiens, UniProt Q9BYP7); test: KINOMEscan; conditions: read-out: Percent Control
Procedure: as §1

TAOK2 = TAOK2 (Homo sapiens, UniProt Q9UL54); test: KINOMEscan; conditions: read-out: Percent Control
Procedure: as §1

YSK4 = YSK4 (Homo sapiens, UniProt Q56UN5); test: KINOMEscan; conditions: read-out: Percent Control
Procedure: as §1

MEK3 = MEK3 (Homo sapiens, UniProt P46734); test: KINOMEscan; conditions: read-out: Percent Control
Sequence of MEK3 (P46734 whole entry): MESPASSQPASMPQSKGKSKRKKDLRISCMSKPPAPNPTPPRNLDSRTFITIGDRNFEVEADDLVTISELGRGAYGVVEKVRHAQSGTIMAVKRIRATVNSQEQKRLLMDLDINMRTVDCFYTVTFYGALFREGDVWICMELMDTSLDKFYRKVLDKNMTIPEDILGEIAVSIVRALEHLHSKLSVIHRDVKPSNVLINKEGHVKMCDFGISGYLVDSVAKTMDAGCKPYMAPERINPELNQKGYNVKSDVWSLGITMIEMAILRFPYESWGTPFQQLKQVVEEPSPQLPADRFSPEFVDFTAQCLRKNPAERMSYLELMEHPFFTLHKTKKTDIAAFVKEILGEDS
Procedure: as §1

PIK3CA(H1047Y) = PIK3CA(H1047Y) (Homo sapiens, UniProt P42336, H1047Y); test: KINOMEscan; conditions: read-out: Percent Control
Procedure: as §1

BRSK2 = BRSK2 (Homo sapiens, UniProt Q8IWQ3); test: KINOMEscan; conditions: read-out: Percent Control
Procedure: as §1

AURKA = AURKA (Homo sapiens, UniProt O14965); test: KINOMEscan; conditions: read-out: Percent Control
Procedure: as §1

FLT3-autoinhibited = FLT3-autoinhibited (Homo sapiens, UniProt P36888); test: KINOMEscan; conditions: read-out: Percent Control
Procedure: as §1

TRKC = TRKC (Homo sapiens, UniProt Q16288); test: KINOMEscan; conditions: read-out: Percent Control
Procedure: as §1

YANK1 = YANK1 (Homo sapiens, UniProt Q8WU08); test: KINOMEscan; conditions: read-out: Percent Control
Procedure: as §1

## O=C1CCC(N2C(=O)c3cccc(NCCCCCCCCNC(=O)N4CC[C@H](NC5=Nc6cc(F)ccc6N(CC(F)F)c6ccc(Cl)cc65)C4)c3C2=O)C(=O)N1 (stereo partly drawn) [BJG-05-039, (3S)-3-((2-Chloro-5-(2,2-difluoroethyl)-8-fluoro-5H-dibenzo[b,e][1,4]diazepin-11-yl)amino)-N-(8-((2-(2,6-dioxopiperidin-3-yl)-1,3-dioxoisoindolin-4-yl)amino)octyl)pyrrolidine-1-carboxamide]
ERK
  Phosphorylation of ERK: inhibiting phosphorylation of ERK
MARK2
  remaining binding at 10 µM: 38%
TNIK
  remaining binding at 10 µM: 48%
DMPK
  remaining binding at 10 µM: 52%
GAK
  remaining binding at 10 µM: 56%
PRKG1
  remaining binding at 10 µM: 57%
CSNK1E
  remaining binding at 10 µM: 61%
MRCKB
  remaining binding at 10 µM: 67%
GRK4
  remaining binding at 10 µM: 71%
MAP4K3
  remaining binding at 10 µM: 72%
YES
  remaining binding at 10 µM: 79%
[1]
  remaining binding at 10 µM: 82%
TEC
  remaining binding at 10 µM: 82%
NEK1
  remaining binding at 10 µM: 83%
CDC2L2
  remaining binding at 10 µM: 84%
DDR2
  remaining binding at 10 µM: 86%
S6K1
  remaining binding at 10 µM: 89%
WNK3
  remaining binding at 10 µM: 89%
TAOK2
  remaining binding at 10 µM: 93%
YSK4
  remaining binding at 10 µM: 93%
MEK3
  remaining binding at 10 µM: 94%
PIK3CA(H1047Y)
  remaining binding at 10 µM: 94%
BRSK2
  remaining binding at 10 µM: 99%
AURKA
  remaining binding at 10 µM: 100%
FLT3-autoinhibited
  remaining binding at 10 µM: 100%
TRKC
  remaining binding at 10 µM: 100%
YANK1
  remaining binding at 10 µM: 100%
